Strand notation (5' to 3'): a small letter for the sugar, then the base; units joined by * are phosphorothioate-linked, units joined directly phosphodiester-linked; [ ] holds rarer units or linkages, { } end groups; capitals alone tell only the bases. k = constrained ethyl (cEt); [5mC] = 5-methylcytosine; d = 2'-deoxy (DNA)
How the values were obtained:
[1] = tested on: Yap1 mRNA; assay: Yap1 mRNA in SCC25 cells, RNA analysis (Example 25); format: cell-based, human; settings: free uptake, 48 hours, RTS4814, normalized to actin-beta
Method: (§1) Modified oligonucleotides described in the studies above were tested at various doses in squamous cell carcinoma cell SCC25. A control oligonucleotide 792169 (a 3-10-3 cET gapmer with a full phosphorothioate backbone, […], designated herein as SEQ ID No.: 2940; is not complementary to any known human gene) was also tested.
Cultured SCC25 cells at a density of 5,000 cells per well were treated using free uptake with modified oligonucleotides diluted to concentrations described in the tables below. After approximately 48 hours, Yap1 mRNA levels were measured as previously described using the Human Yap1 primer-probe set RTS4814. Yap1 mRNA levels were normalized to actin-beta content, as measured by primer probe set RTS5002 (forward sequence […], designated herein as SEQ ID NO.: 20; reverse sequence […], designated herein as SEQ ID NO.: 21; probe sequence […], designated herein as SEQ ID NO.: 22). Results are presented in the tables below as percent control of the amount of Yap1 mRNA relative to untreated control cells (% UTC).

[2] = tested on: Yap1 mRNA; assay: Inhibition of human Yap1 mRNA in epidermoid carcinoma A-431 xenograft tumors (Example 27); format: in vivo; settings: A-431 xenografts in NCr-Foxn1nu mice, 6-8 hours post final dose, relative to PBS
Method: An epidermoid carcinoma A-431 xenograft tumor model was used to evaluate activity of modified oligonucleotides targeted to human Yap1. Five million A-431 cells in 30% matrigel were implanted subcutaneously into the flanks of female NCr-Foxn1nu mice (from Taconic) at 4-6 weeks of age. When tumors reached an average volume of 40 mm^3, approximately two weeks post-implantation, groups of four mice each were administered at either 25 mg/kg or 50 mg/kg daily with modified oligonucleotides for […] (5 doses). Tumors were collected 6-8 hours post final dose and tested for Yap1 mRNA knockdown by RT-qPCR. Yap1 mRNA levels were measured as previously described using the Human Yap1 primer-probe set RTS4814. Yap1 mRNA levels were normalized to actin-beta content, as measured by primer probe set RTS5002. Results are presented in the tables below as percent control of the amount of Yap1 mRNA relative to PBS treated animals (% control).

[3] = Cynomolgus monkey tolerability, body and organ weight measurements (Example 34); format: in vivo; settings: cynomolgus monkeys, 35 mg/kg subcutaneously; for Heart weight / Kidney weight / Liver with gallbladder weight / Spleen weight: necropsy; for Terminal Body Weight: prior to necropsy
Method: Cynomolgus monkeys were treated with Ionis modified oligonucleotides selected from studies described in the Examples above. Modified oligonucleotide tolerability was evaluated.
During the study period, the monkeys were observed twice daily for signs of illness or distress. Any animal experiencing more than momentary or slight pain or distress due to the treatment, injury or illness was treated by the veterinary staff with approved analgesics or agents to relieve the pain after consultation with the Study Director. Any animal in poor health or in a possible moribund condition was identified for further monitoring and possible euthanasia. Scheduled euthanasia of the animals was conducted on day 86 approximately 48 hours after the last dose by exsanguination while under deep anesthesia. The protocols described in the Example were approved by the Institutional Animal Care and Use Committee (IACUC).
To evaluate the effect of Ionis oligonucleotides on the overall health of the animals, body and organ weights were measured. Terminal body weight was measured prior to necropsy.

[4] = tested on: SCC25 cells; assay: Cell proliferation assay in SCC25 cells, CellTiter-Glo (Example 25); format: cell-based, human; settings: free uptake, 144 hours
Method: as §1
Cultured SCC25 cells at a density of 1,000 cells/well were treated using free uptake with modified oligonucleotides diluted to concentrations described in the tables below. After approximately 144 hours, cell proliferation was measured using the luminescent cell viability CellTiter-Glo® 2.0 Assay (Promega). Results are presented in the tables below as percent control of the amount of luminescence in samples treated with modified oligonucleotides relative to untreated control cells (% UTC).

[5] = Cynomolgus monkey tolerability, pro-inflammatory proteins analysis, Complement C3 and CRP (Example 34); format: in vivo; settings: cynomolgus monkeys, 35 mg/kg subcutaneously; for CRP: day 44
Method: To evaluate any inflammatory effect of Ionis oligonucleotides in cynomolgus monkeys, blood samples were taken for analysis. The monkeys were fasted overnight prior to blood collection. On day 42 (pre-dose and 24 hours post-dose), approximately 0.8 mL of blood was collected from each animal and put into tubes without anticoagulant for serum separation. […] Complement C3 were measured using a Toshiba 120 FR NEO chemistry analyzer (Toshiba Co., Japan). […] Another marker of inflammation, C-Reactive Protein (CRP) was tested together with the clinical chemistry parameters tested for liver function above.

[6] = Cynomolgus monkey tolerability, urine analysis (Example 34); settings: cynomolgus monkeys, 35 mg/kg subcutaneously, day 44
Method: Prior to the study, the monkeys were kept in quarantine during which the animals were observed daily for general health. The monkeys were 2-4 years old and weighed 2-4 kg. Eleven groups of 4 randomly assigned male cynomolgus monkeys each were injected subcutaneously with Ionis oligonucleotide or saline in a clock-wise rotation between four different sites on the back. Following loading doses on days 1, 3, 5 and 7, the monkeys were dosed once per week (on days 14, 21, 28, 35, and 42) with 35 mg/kg of Ionis oligonucleotide.
Food was removed overnight the day before fresh urine collection, but water was supplied. Fresh urine samples for urinalysis and urine chemistry were collected from all animals using a clean cage pan on wet ice (first in the morning) on day 44. Urinalysis/Urine Chemistry parameters creatinine (UCRE), microprotein (UTP), urine microalbumin (UALB), and protein/creatinine (P/C) ratio were measured using a Toshiba 120FR automated chemistry analyzer (Toshiba Co., Japan).

[7] = tested on: Yap1 mRNA; assay: Inhibition of human Yap1 mRNA in squamous cell carcinoma CAL27 xenograft tumors (Example 28); format: in vivo; settings: CAL27 xenografts in NCr-Foxn1nu mice, relative to PBS treated
Method: A squamous cell carcinoma CAL27 xenograft tumor model was used to evaluate activity of modified oligonucleotides targeted to human Yap1. Five million CAL27 cells in 30% matrigel were implanted subcutaneously into the flanks of female CrTac:NCr-Foxn1nu mice (from Taconic) at 4-6 weeks of age. Groups of four mice each were administered with either 15 mg/kg or 30 mg/kg of modified oligonucleotides daily for five days after tumor size had reached ˜100 mm^3 (about 3 weeks post implantation). Tumors were collected and tested for Yap1 mRNA knockdown by RT-qPCR. Yap1 mRNA levels were measured as previously described using the Human Yap1 primer-probe set RTS4814. Yap1 mRNA levels were normalized to actin-beta content, as measured by primer probe set RTS5002. Results are presented in the tables below as percent control of the amount of Yap1 mRNA relative to PBS treated […].

Substance | Yap1 mRNA, % UTC ([1]; 0.04 μM) | Yap1 mRNA, % UTC ([1]; 0.2 μM) | Yap1 mRNA, % UTC ([1]; 1 μM) | Yap1 mRNA, % UTC ([1]; 5 μM) | Yap1 mRNA in tumors, % control ([2]; 25 mpk daily (5 doses)) | Yap1 mRNA in tumors, % control ([2]; 50 mpk daily (5 doses)) | Heart weight [3] | Kidney weight [3] | Liver with gallbladder weight [3] | Spleen weight [3] | Terminal Body Weight [3] | cell proliferation (luminescence) % UTC ([4]; 0.04 μM) | cell proliferation (luminescence) % UTC ([4]; 0.2 μM) | cell proliferation (luminescence) % UTC ([4]; 1 μM) | cell proliferation (luminescence) % UTC ([4]; 5 μM) | Complement C3 ([5]; Day 42 (pre-dose)) | Complement C3 ([5]; day 42 (24 hr post-dose)) | CRP [5] | UALB [6] | UCRE [6] | also measured
1198439 (AGTGTATGTCAGAAGA; sugar, 5-methylcytosine, phosphorothioate modifications, further chemistry not given here) [compound 1198439] | 35 % UTC | 12 % UTC | 5 % UTC | 3 % UTC | 37 % control | 19 % control | 10 g | 15 g | 67 g | 3 g | 2959 g | 62 % UTC | 30 % UTC | 22 % UTC | 16 % UTC | 99 mg/dL | 94 mg/dL | 2.9 mg/L | 0.1 mg/dL | 68 mg/dL | UTP [6]: 15 mg/dL; Yap1 mRNA in tumors, % UTC ([7]; 15 mg/kg daily for five days): 66 % UTC; Yap1 mRNA in tumors, % UTC ([7]; 30 mg/kg daily for five days): 38 % UTC
715487 (kA*kT*kT*dA*d[5mC]*dT*dT*d[5mC]*dA*dT*dA*dG*d[5mC]*kT*kT*kA) [compound 715487] | – | – | – | – | 61 % control | 57 % control | – | – | – | – | – | – | – | – | – | – | – | – | – | – | –
958499 (ATTAGAGTATGTGGCA; 3-10-3 cEt gapmer, further chemistry not given here) [compound 958499] | 47 % UTC | 22 % UTC | 10 % UTC | 4 % UTC | 49 % control | 29 % control | 10 g | 15 g | 68 g | 4 g | 2894 g | 76 % UTC | 42 % UTC | 25 % UTC | 14 % UTC | 112 mg/dL | 89 mg/dL | 9.9 mg/L | 0.1 mg/dL | 60 mg/dL | UTP [6]: 16 mg/dL; Yap1 mRNA in tumors, % UTC ([7]; 15 mg/kg daily for five days): 68 % UTC; Yap1 mRNA in tumors, % UTC ([7]; 30 mg/kg daily for five days): 53 % UTC
1198440 (AAGTGTATGTCAGAAG; cEt, 2'-MOE, 5-methylcytosine, phosphorothioate modifications, further chemistry not given here) [compound 1198440] | 39 % UTC | 14 % UTC | 5 % UTC | 3 % UTC | 32 % control | 21 % control | 11 g | 15 g | 65 g | 3 g | 2919 g | 73 % UTC | 33 % UTC | 22 % UTC | 16 % UTC | 95 mg/dL | 88 mg/dL | 4.8 mg/L | 0.2 mg/dL | 53 mg/dL | UTP [6]: 13 mg/dL; Yap1 mRNA in tumors, % UTC ([7]; 15 mg/kg daily for five days): 67 % UTC; Yap1 mRNA in tumors, % UTC ([7]; 30 mg/kg daily for five days): 41 % UTC
CGCCGATAAGGTACAC (cEt gapmer, phosphorothioate backbone, further chemistry not given here) [ION 792169, reference compound] | 96 % UTC | 89 % UTC | 93 % UTC | 98 % UTC | – | – | – | – | – | – | – | 103 % UTC | 104 % UTC | 100 % UTC | 88 % UTC | – | – | – | – | – | –
1076453 (GTAATATTGCAATCTG; 3-10-3 cEt gapmer, further chemistry not given here) [compound 1076453] | 59 % UTC | 21 % UTC | 7 % UTC | 3 % UTC | 55 % control | 25 % control | 11 g | 16 g | 72 g | 5 g | 2955 g | 81 % UTC | 40 % UTC | 23 % UTC | 15 % UTC | 101 mg/dL | 88 mg/dL | 1.5 mg/L | 0.1 mg/dL | 50 mg/dL | UTP [6]: 14 mg/dL; Yap1 mRNA in tumors, % UTC ([7]; 15 mg/kg daily for five days): 69 % UTC; Yap1 mRNA in tumors, % UTC ([7]; 30 mg/kg daily for five days): 46 % UTC
